Drawing on patent US20250353852A1, “COMPOUNDS AND COMPOSITIONS THAT INHIBIT PIKFYVE” (Kineta, Inc., priority 2021, published 2025), this text covers IC50 for 30 molecules.

full-length human PIKFYVE, sequence (Q9Y2I7 whole entry S696N/L932S/Q995L/T998S/S1033A/Q1183K, the tested form may be a part): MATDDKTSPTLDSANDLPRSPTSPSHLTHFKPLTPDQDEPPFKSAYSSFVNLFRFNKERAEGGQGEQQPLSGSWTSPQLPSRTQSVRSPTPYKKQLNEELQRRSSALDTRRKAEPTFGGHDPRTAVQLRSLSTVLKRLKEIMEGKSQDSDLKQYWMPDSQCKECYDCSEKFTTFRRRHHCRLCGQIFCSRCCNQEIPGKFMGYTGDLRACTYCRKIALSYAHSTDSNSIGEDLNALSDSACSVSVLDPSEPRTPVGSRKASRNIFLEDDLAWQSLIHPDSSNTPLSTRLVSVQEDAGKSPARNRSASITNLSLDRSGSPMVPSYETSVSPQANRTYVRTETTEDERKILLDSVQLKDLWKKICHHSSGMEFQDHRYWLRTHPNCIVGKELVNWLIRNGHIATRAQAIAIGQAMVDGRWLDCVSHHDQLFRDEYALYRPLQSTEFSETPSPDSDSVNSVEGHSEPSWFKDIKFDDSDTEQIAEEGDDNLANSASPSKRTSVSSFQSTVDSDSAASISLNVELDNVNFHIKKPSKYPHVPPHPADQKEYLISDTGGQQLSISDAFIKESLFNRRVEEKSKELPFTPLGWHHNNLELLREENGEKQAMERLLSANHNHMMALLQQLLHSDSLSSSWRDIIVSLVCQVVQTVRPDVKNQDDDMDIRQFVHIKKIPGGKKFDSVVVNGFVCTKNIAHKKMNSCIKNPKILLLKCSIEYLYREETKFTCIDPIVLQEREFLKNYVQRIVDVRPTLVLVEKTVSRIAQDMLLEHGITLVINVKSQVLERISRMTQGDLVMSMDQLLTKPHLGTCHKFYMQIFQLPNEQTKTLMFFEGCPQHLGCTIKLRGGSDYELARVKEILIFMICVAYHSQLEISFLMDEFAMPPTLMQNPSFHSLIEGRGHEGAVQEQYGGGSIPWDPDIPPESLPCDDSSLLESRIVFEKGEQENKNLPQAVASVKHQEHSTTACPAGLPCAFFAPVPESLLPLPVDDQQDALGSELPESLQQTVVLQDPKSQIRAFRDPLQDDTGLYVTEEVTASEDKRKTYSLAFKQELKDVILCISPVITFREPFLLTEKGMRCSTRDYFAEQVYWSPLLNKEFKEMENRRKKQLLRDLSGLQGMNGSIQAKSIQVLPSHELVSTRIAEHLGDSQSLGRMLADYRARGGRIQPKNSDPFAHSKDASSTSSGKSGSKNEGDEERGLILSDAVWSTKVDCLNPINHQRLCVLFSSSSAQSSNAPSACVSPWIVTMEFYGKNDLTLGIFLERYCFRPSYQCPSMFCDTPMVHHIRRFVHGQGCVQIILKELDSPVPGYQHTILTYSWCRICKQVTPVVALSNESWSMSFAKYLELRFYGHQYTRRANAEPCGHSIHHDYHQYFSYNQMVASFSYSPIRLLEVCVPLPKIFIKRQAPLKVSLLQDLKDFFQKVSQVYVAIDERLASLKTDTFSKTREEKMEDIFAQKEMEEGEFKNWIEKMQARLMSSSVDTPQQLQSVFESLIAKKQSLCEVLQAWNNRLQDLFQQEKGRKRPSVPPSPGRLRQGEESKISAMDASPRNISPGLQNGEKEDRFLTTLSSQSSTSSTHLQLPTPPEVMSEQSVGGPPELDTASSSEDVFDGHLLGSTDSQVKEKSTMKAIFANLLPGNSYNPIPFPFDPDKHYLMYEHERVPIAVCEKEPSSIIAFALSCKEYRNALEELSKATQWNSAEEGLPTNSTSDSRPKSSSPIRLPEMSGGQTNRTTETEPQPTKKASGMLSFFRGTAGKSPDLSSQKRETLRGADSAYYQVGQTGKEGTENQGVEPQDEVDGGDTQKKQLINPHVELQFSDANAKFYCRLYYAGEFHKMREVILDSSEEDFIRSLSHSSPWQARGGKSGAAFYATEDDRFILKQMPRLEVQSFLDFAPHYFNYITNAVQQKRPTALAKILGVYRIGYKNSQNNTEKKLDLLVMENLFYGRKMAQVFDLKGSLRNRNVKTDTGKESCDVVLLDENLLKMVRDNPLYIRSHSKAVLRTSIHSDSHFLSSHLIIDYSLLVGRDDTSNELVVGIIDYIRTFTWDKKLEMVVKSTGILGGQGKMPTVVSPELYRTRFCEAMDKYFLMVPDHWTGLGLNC

This test concerns the target full-length human PIKFYVE (Homo sapiens (Human), UniProt Q9Y2I7, L932S/Q1183K/Q995L/S1033A/S696N/T998S). Nature of the test: PIKfyve biochemical assay (ADP-Glo Kinase assay, Carna Biosciences). The following applies: class symbols. From the text: PIKfyve Biochemical Assay. The biochemical […] inhibition assays were run by Carna Biosciences according to proprietary methodology based on the Promega […] Kinase assay. […] NP_055855.2] was expressed as N-terminal GST-fusion protein (265 kDa) using baculovirus expression system. GST-PIKFYVE was purified by using glutathione sepharose chromatography and used in an ADP-GloTM Kinase assay (Promega). Reactions were set up by adding the test compound solution, substrate solution, ATP solution and kinase solution, each at 4× final concentrations. Reactions were prepared with assay buffer (50 mM MOPS, 1 mM DTT, pH7.2), mixed, and incubated in black 384 well polystyrene plates for 1 hour at room temperature. ADP-Glo^TM reagent was then added for 40 minutes, followed by kinase detection reagent for an additional 40 minutes. The kinase activity was evaluated by detecting relative light units on a luminescence plate reader. […] IC50 values were calculated from concentration vs % inhibition curves by fitting to a four-parameter logistic curve. […] The biochemical […] inhibition assays were run by Carna Biosciences according to proprietary methodology based on the Promega ADP-GloTM Kinase assay. […] GST-PIKFYVE was purified by using glutathione sepharose chromatography and used in an ADP-GIoTM Kinase assay (Promega). Reactions were set up by adding the test compound solution, substrate solution, ATP solution and kinase solution, each at 4× final concentrations. Reactions were prepared with assay buffer (50 mM MOPS, 1 mM DTT, pH7.2), mixed, and incubated in black 384 well polystyrene plates for 1 hour at room temperature. ADP-GIoTM reagent was then added for 40 minutes, followed by kinase detection reagent for an additional 40 minutes. The kinase activity was evaluated by detecting relative light units on a luminescence plate reader. […] IC50 values were calculated from concentration vs % inhibition curves by fitting to a four-parameter logistic curve. […] The same compounds were also tested in both FAB1 and PIKFYVE TDP-43 yeast models.
A general note: ADP-Glo first removes unused ATP, then detects ADP through luciferase.
Take `CN1C(=O)CN(c2cc(N3CCOCC3)n3nc(-c4ccncc4)cc3n2)CC1c1ccccc1` (stereo not drawn) [Compound 37, 1-methyl-4-(7-morpholino-2-(pyridin-4-yl)pyrazolo[1,5-a]pyrimidin-5-yl)-6-phenylpiperazin-2-one]: the 50% inhibitory concentration (IC50) (in general, the concentration that gives 50% inhibition) lay in the range of 1000 to 10000 nM.

`CN1CCN(c2cc(N3CCOCC3)n3nc(-c4ccncc4)cc3n2)CC1c1ccccc1` (stereo not drawn) [Compound 38, 4-(5-(4-methyl-3-phenylpiperazin-1-yl)-2-(pyridin-4-yl)pyrazolo[1,5-a]pyrimidin-7-yl)morpholine] registered an IC50 of 1000 to 10000 nM.

The molecule `c1ccc(Cc2ncccc2-c2cc(N3CCOCC3)n3nc(-c4ccncc4)cc3n2)cc1` [Compound 39, 4-(5-(2-benzylpyridin-3-yl)-2-(pyridin-4-yl)pyrazolo[1,5-a]pyrimidin-7-yl)morpholine] showed an IC50 of 1000 to 10000 nM.

The molecule `c1ccc(Cc2cccnc2-c2cc(N3CCOCC3)n3nc(-c4ccncc4)cc3n2)cc1` [Compound 40, 4-(5-(3-benzylpyridin-2-yl)-2-(pyridin-4-yl)pyrazolo[1,5-a]pyrimidin-7-yl)morpholine] yielded a half-inhibitory concentration (IC50) of 1000 to 10000 nM.

For `c1ccc(Oc2cccnc2-c2cc(N3CCOCC3)n3nc(-c4ccncc4)cc3n2)cc1` [Compound 41, 4-(5-(3-phenoxypyridin-2-yl)-2-(pyridin-4-yl)pyrazolo[1,5-a]pyrimidin-7-yl)morpholine], the IC50 lay in the range of 100 to 1000 nM.

`c1ccc(Oc2ncccc2-c2cc(N3CCOCC3)n3nc(-c4ccncc4)cc3n2)cc1` [Compound 42, 4-(5-(2-phenoxypyridin-3-yl)-2-(pyridin-4-yl)pyrazolo[1,5-a]pyrimidin-7-yl)morpholine]: the IC50 was in the range of 100 to 1000 nM.

`Oc1cc(-c2cncnc2)nn1-c1cc(N2CCOCC2)n2nc(-c3ccncc3)cc2n1` [Compound 44, 1-(7-morpholino-2-(pyridin-4-yl)pyrazolo[1,5-a]pyrimidin-5-yl)-3-(pyrimidin-5-yl)-1H-pyrazol-5-ol] gave a concentration for half-maximal inhibition (IC50) of 100 to 1000 nM.

For `Cc1ccccc1-c1cc(O)n(-c2cc(N3CCOCC3)n3nc(-c4ccncc4)cc3n2)n1` [Compound 46, 1-(7-morpholino-2-(pyridin-4-yl)pyrazolo[1,5-a]pyrimidin-5-yl)-3-(o-tolyl)-1H-pyrazol-5-ol], the IC50 is 10 to 100 nM.

In turn, `Oc1cc(C2CCCCC2)nn1-c1cc(N2CCOCC2)n2nc(-c3ccncc3)cc2n1` [Compound 49, 3-cyclohexyl-1-(7-morpholino-2-(pyridin-4-yl)pyrazolo[1,5-a]pyrimidin-5-yl)-1H-pyrazol-5-ol] returned an IC50 of 100 to 1000 nM.

`Oc1cc(C2CCOCC2)nn1-c1cc(N2CCOCC2)n2nc(-c3ccncc3)cc2n1` [Compound 50, 1-(7-morpholino-2-(pyridin-4-yl)pyrazolo[1,5-a]pyrimidin-5-yl)-3-(tetrahydro-2H-pyran-4-yl)-1H-pyrazol-5-ol] gave an IC50 of 100 to 1000 nM.

`Oc1cc(-c2ccccc2F)nn1-c1cc(N2CCOCC2)n2nc(-c3ccncc3)cc2n1` [Compound 53, 3-(2-fluorophenyl)-1-(7-morpholino-2-(pyridin-4-yl)pyrazolo[1,5-a]pyrimidin-5-yl)-1H-pyrazol-5-ol] gave an IC50 of 10 to 100 nM.

`CC(C)c1cc(O)n(-c2cc(N3CCOCC3)n3nc(-c4ccncc4)cc3n2)n1` [Compound 54, 3-isopropyl-1-(7-morpholino-2-(pyridin-4-yl)pyrazolo[1,5-a]pyrimidin-5-yl)-1H-pyrazol-5-ol] came in with an IC50 of 100 to 1000 nM.

The molecule `Oc1c2c(nn1-c1cc(N3CCOCC3)n3nc(-c4ccncc4)cc3n1)CCCC2` [Compound 55, 2-(7-morpholino-2-(pyridin-4-yl)pyrazolo[1,5-a]pyrimidin-5-yl)-4,5,6,7-tetrahydro-2H-indazol-3-ol] yielded a half-maximal inhibitory concentration (IC50) of 100 to 1000 nM.

For `CN1CCC(c2cc(O)n(-c3cc(N4CCOCC4)n4nc(-c5ccncc5)cc4n3)n2)CC1` [Compound 56, 3-(1-methylpiperidin-4-yl)-1-(7-morpholino-2-(pyridin-4-yl)pyrazolo[1,5-a]pyrimidin-5-yl)-1H-pyrazol-5-ol], the IC50 was 100 to 1000 nM.

`Oc1cc(-c2cc(N3CCOCC3)n3nc(-c4ccncc4)cc3n2)nn1-c1ccccc1` [Compound 57, 3-(7-morpholino-2-(pyridin-4-yl)pyrazolo[1,5-a]pyrimidin-5-yl)-1-phenyl-1H-pyrazol-5-ol]: the IC50 lay in the range of 10 to 100 nM.

On to `Oc1cc(-c2cc(N3CCOCC3)n3nc(-c4ccncc4)cc3n2)nn1-c1cccnc1` [Compound 58, 3-(7-morpholino-2-(pyridin-4-yl)pyrazolo[1,5-a]pyrimidin-5-yl)-1-(pyridin-3-yl)-1H-pyrazol-5-ol], for which the IC50 was 10 to 100 nM.

For the molecule `Oc1cc(-c2cc(N3CCOCC3)n3nc(-c4ccncc4)cc3n2)nn1-c1cccc(F)c1` [Compound 59, 1-(3-fluorophenyl)-3-(7-morpholino-2-(pyridin-4-yl)pyrazolo[1,5-a]pyrimidin-5-yl)-1H-pyrazol-5-ol], the IC50 was in the range of 10 to 100 nM.

`Fc1cncc(-c2ccn(-c3cc(N4CCOCC4)n4nc(-c5ccncc5)cc4n3)n2)c1` [Compound 60, 4-(5-(3-(5-fluoropyridin-3-yl)-1H-pyrazol-1-yl)-2-(pyridin-4-yl)pyrazolo[1,5-a]pyrimidin-7-yl)morpholine] returned an IC50 of 100 to 1000 nM.

In turn, `c1cc(-c2cc3nc(-n4ccc(C5CCCOC5)n4)cc(N4CCOCC4)n3n2)ccn1` (stereo not drawn) [Compound 61, 4-(2-(pyridin-4-yl)-5-(3-(tetrahydro-2H-pyran-3-yl)-1H-pyrazol-1-yl)pyrazolo[1,5-a]pyrimidin-7-yl)morpholine] had a concentration for half-maximal inhibition (IC50) of 1000 to 10000 nM.

The molecule `c1cc(-c2cc3nc(-n4ccc(C5CCNCC5)n4)cc(N4CCOCC4)n3n2)ccn1` [Compound 62, 4-(5-(3-(piperidin-4-yl)-1H-pyrazol-1-yl)-2-(pyridin-4-yl)pyrazolo[1,5-a]pyrimidin-7-yl)morpholine] yielded a 50% inhibitory concentration (IC50) of 100 to 1000 nM.

In turn, `CN1CCC(c2ccn(-c3cc(N4CCOCC4)n4nc(-c5ccncc5)cc4n3)n2)CC1` [Compound 63, 4-(5-(3-(1-methylpiperidin-4-yl)-1H-pyrazol-1-yl)-2-(pyridin-4-yl)pyrazolo[1,5-a]pyrimidin-7-yl)morpholine] gave an IC50 of 100 to 1000 nM.

In turn, `c1cc(-c2cc3nc(-n4ccc(C5CCCNC5)n4)cc(N4CCOCC4)n3n2)ccn1` (stereo not drawn) [Compound 67, 4-(5-(3-(piperidin-3-yl)-1H-pyrazol-1-yl)-2-(pyridin-4-yl)pyrazolo[1,5-a]pyrimidin-7-yl)morpholine] yielded an IC50 of 100 to 1000 nM.

As to `CN1CCCC(c2ccn(-c3cc(N4CCOCC4)n4nc(-c5ccncc5)cc4n3)n2)C1` (stereo not drawn) [Compound 68, 4-(5-(3-(1-methylpiperidin-3-yl)-1H-pyrazol-1-yl)-2-(pyridin-4-yl)pyrazolo[1,5-a]pyrimidin-7-yl)morpholine], the IC50 lay in the range of 100 to 1000 nM.

On to `c1cc(-c2cc3nc(-n4ccc(-c5ccnnc5)n4)cc(N4CCOCC4)n3n2)ccn1` [Compound 69, 4-(5-(3-(pyridazin-4-yl)-1H-pyrazol-1-yl)-2-(pyridin-4-yl)pyrazolo[1,5-a]pyrimidin-7-yl)morpholine], for which the IC50 was 100 to 1000 nM.

The molecule `c1ccc(-c2ccn(-c3cc(N4CCOCC4)n4nc(-c5ccncc5)cc4n3)n2)nc1` [Compound 70, 4-(5-(3-(pyridin-2-yl)-1H-pyrazol-1-yl)-2-(pyridin-4-yl)pyrazolo[1,5-a]pyrimidin-7-yl)morpholine] gave an IC50 of 100 to 1000 nM.

As to `c1cc(-c2cc3nc(-n4ccc(-c5cncnc5)n4)cc(N4CCOCC4)n3n2)ccn1` [Compound 72, 4-(2-(pyridin-4-yl)-5-(3-(pyrimidin-5-yl)-1H-pyrazol-1-yl)pyrazolo[1,5-a]pyrimidin-7-yl)morpholine], the IC50 was 100 to 1000 nM.

With `c1cc(-c2cc3nc(-n4ccc(C5CNC5)n4)cc(N4CCOCC4)n3n2)ccn1` [Compound 73, 4-(5-(3-(Azetidin-3-yl)-1H-pyrazol-1-yl)-2-(pyridin-4-yl)pyrazolo[1,5-a]pyrimidin-7-yl)morpholine], the IC50 is 100 to 1000 nM.

For the molecule `FC1(F)CNCC(c2ccn(-c3cc(N4CCOCC4)n4nc(-c5ccncc5)cc4n3)n2)C1` (stereo not drawn) [Compound 74, 4-(5-(3-(5,5-difluoropiperidin-3-yl)-1H-pyrazol-1-yl)-2-(pyridin-4-yl)pyrazolo[1,5-a]pyrimidin-7-yl)morpholine], the IC50 lay in the range of 1000 to 10000 nM.

As to `OCCc1ccn(-c2cc(N3CCOCC3)n3nc(-c4ccncc4)cc3n2)n1` [Compound 80, 2-(1-(7-morpholino-2-(pyridin-4-yl)pyrazolo[1,5-a]pyrimidin-5-yl)-1H-pyrazol-3-yl)ethan-1-ol], the IC50 is 100 to 1000 nM.

The molecule `COCCc1ccn(-c2cc(N3CCOCC3)n3nc(-c4ccncc4)cc3n2)n1` [Compound 81, 4-(5-(3-(2-methoxyethyl)-1H-pyrazol-1-yl)-2-(pyridin-4-yl)pyrazolo[1,5-a]pyrimidin-7-yl)morpholine] gave an IC50 of 100 to 1000 nM.
